Patent US20150164875A1, “Compound Preparation of Lercanidipine and Atorvastatin” (ZHAOKE PHARMACEUTICAL (GUANGZHOU) COMPANY LIMITED, priority 2012, published 2015)
Counter-ions that a name gives are not always drawn. Like-named read-outs stand apart in the source and are kept apart here.

Assays:
[1] = test system: rats with spontaneous hypertension (adult MHS rats) fed with high fat diet; assay: Total serum cholesterol in rats with spontaneous hypertension accompanied by dyslipidemia (Example 4); assay type: in vivo, rat; details: for total cholesterol: B 0.4 mg/kg, C 0.8 mg/kg, D 0.4 mg/kg+0.8 mg/kg, Mean ± SD; for change in total cholesterol (in words): over 4 weeks of administration, C and D p<0.05, B p>0.05
Procedure: (§1) 5-month-old rats with spontaneous hypertension (adult MHS rats), half males and half females, were fed with high fat diet every day (1.0% of cholesterol, 0.2% of propylthiouracil, 0.5% of sodium cholate, 5.0% of lard, 1.0% of methionine and 92.3% of basal diet) for four weeks; after four weeks, the basal systolic pressure and lipid levels in rats weighing 200-240 g were determined. Rats with hypertension accompanied with dyslipidemia were evenly divided into 4 groups with 12 rates in each group. The four groups were respectively as follows: solvent control group (A), lercanidipine group (lercanidipine hydrochloride, 0.4 mg/kg) (B), atorvastatin group (atorvastatin calcium, 0.8 mg/kg) (C), and lercanidipine/atorvastatin compound group (lercanidipine hydrochloride+atorvastatin calcium, 0.4 mg/kg+0.8 mg/kg) (D). Each group of drugs was formulated with physiological saline, and were administered to rats by gavage once a day for 4 consecutive weeks. Rats were measured 2 hours after administration at the end of each week for the systolic pressure and total serum cholesterol levels and so on.

[2] = test system: SD rats with hypertension accompanied by dyslipidemia; assay: Decrease in systolic pressure in experimental (renal artery clip) rats with hypertension accompanied by dyslipidemia (Example 5); assay type: in vivo, rat; details: for Degree of antihypertension: gavage once a day, 20 weeks, systolic pressure before minus after administration, Mean ± SD; for systolic pressure as compared with the solvent control group (in words): end of week 20, lercanidipine 0.5 mg/kg, atorvastatin 1.0 mg/kg, compound 0.5 mg/kg+0.5/1.0/2.0 mg/kg, positive control 0.5 mg/kg+1.0 mg/kg
Procedure: SD rats, weighing 150-180 g, were anaesthetized by intraperitoneal injection with chloral hydrate (320 mg/kg). The abdominal cavity was opened, and the left renal artery was separated and was restricted with 0.2 mm silver clip. At 8-10 weeks following the procedure, rats with systolic pressure ≧140 mmHg were recognized as hypertension rats. Rats with hypertension were administered with vitamin D3 by gavage in a total dosage of 600,000 U/kg in three days, and then were fed with high-fat diet every day (cholesterol 1.0%, propylthiouracil 0.2%, sodium cholate 0.5%, lard 5.0%, methionine 1.0%, basal diet 92.3%). Rats in normal control group were fed with normal diet. After four weeks, systolic pressure was measured in rats, serum total cholesterol (TC) and triglyceride (TG) levels were determined by taking blood from tail vein.
(§2) 140 rats with hypertension accompanied by dyslipidemia were evenly divided into 7 groups with 20 rats in each group according to blood pressure and lipid levels, which were respectively solvent control group, lercanidipine group (lercanidipine hydrochloride, 0.5 mg/kg), atorvastatin group (atorvastatin calcium, 1.0 mg/kg), lercanidipine/atorvastatin compound group 1 (lercanidipine hydrochloride+atorvastatin calcium, 0.5 mg/kg+0.5 mg/kg), lercanidipine/atorvastatin compound group 2 (lercanidipine hydrochloride+atorvastatin calcium, 0.5 mg/kg+1.0 mg/kg), lercanidipine/atorvastatin compound group 3 (lercanidipine hydrochloride+atorvastatin calcium, 0.5 mg/kg+2.0 mg/kg), and positive control group (amlodipine besylate+atorvastatin calcium, 0.5 mg/kg+1.0 mg/kg).
(§3) Another 20 normal rats served as normal control group. Rats with hypertension were continued to be fed with the high-fat diet, and rats in normal group were fed with normal diet. Each group of drugs was formulated with physiological saline, and for the normal control group and solvent control group rats, same volume of physiological saline were administered. Rats were administered by gavage once a day for 20 consecutive weeks. Rats were weighed once a week, and the dosage was adjusted based on the weight. Blood pressures in different time points before and after administration were measured respectively to calculate the magnitude of the decrease in blood pressure (systolic pressure before administration−systolic pressure after administration). Rats were sampled 20 weeks later, and the serum total cholesterol (TC) and triglyceride (TG) levels were determined. The corresponding parameters for each group were represented with the mean±standard deviation (Mean±SD), and t-test was used to compare different groups.

[3] = test system: rats with spontaneous hypertension (adult MHS rats) fed with high fat diet; assay: Systolic pressure in rats with spontaneous hypertension accompanied by dyslipidemia (Example 4); assay type: in vivo, rat; details: for systolic pressure: B 0.4 mg/kg, C 0.8 mg/kg, D 0.4 mg/kg+0.8 mg/kg, Mean ± SD
Procedure: as §1

[4] = test system: SD rats with hypertension accompanied by dyslipidemia; assay: Serum TC and TG in experimental rats with hypertension accompanied by dyslipidemia (Example 5); assay type: in vivo, rat; details: for TC / TG: gavage once a day, serum after 20 weeks, Mean ± SD; for TC and TG as compared with the solvent control group (in words): end of week 20, lercanidipine 0.5 mg/kg, atorvastatin 1.0 mg/kg, compound 0.5 mg/kg+0.5/1.0/2.0 mg/kg, positive control 0.5 mg/kg+1.0 mg/kg
Procedure: SD rats, weighing 150-180 g, were anaesthetized by intraperitoneal injection with chloral hydrate (320 mg/kg). The abdominal cavity was opened, and the left renal artery was separated and was restricted with 0.2 mm silver clip. […] Rats in normal control group were fed with normal diet. After four weeks, systolic pressure was measured in rats, serum total cholesterol (TC) and triglyceride (TG) levels were determined by taking blood from tail vein.
as §2, §3

[5] = cited from earlier work
[6] = 0 week (basal, before administration)
[7] = 1 week, 2 hours after administration, gavage once a day
[8] = 2 weeks, 2 hours after administration, gavage once a day
[9] = 3 weeks, 2 hours after administration, gavage once a day
[10] = 4 weeks, 2 hours after administration, gavage once a day

| Structure (SMILES) | total cholesterol [1, 6] [mmol/L] | total cholesterol ([1]; 1 week, gavage once a day) [mmol/L] | total cholesterol ([1]; 2 weeks, gavage once a day) [mmol/L] | total cholesterol ([1]; 3 weeks, gavage once a day) [mmol/L] | total cholesterol ([1]; 4 weeks, gavage once a day) [mmol/L] | change in total cholesterol (in words) [1] | systolic pressure as compared with the solvent control group (in words) [2] | systolic pressure [3, 6] [mmHg] | systolic pressure [3, 7] [mmHg] | systolic pressure [3, 8] [mmHg] | systolic pressure [3, 9] [mmHg] | systolic pressure [3, 10] [mmHg] | TC and TG as compared with the solvent control group (in words) [4] | further results |
| --- | --- | --- | --- | --- | --- | --- | --- | --- | --- | --- | --- | --- | --- | --- |
| COC(=O)C1=C(C)NC(C)=C(C(=O)OC(C)(C)CN(C)CCC(c2ccccc2)c2ccccc2)C1c1cccc([N+](=O)[O-])c1 (stereo not drawn) [Group B, lercanidipine hydrochloride] | 8.49 ± 3.01 | 7.95 ± 2.48 | 7.55 ± 1.94 | 7.28 ± 1.76 | 7.01 ± 1.77 | decreased | significantly decreased | 162 ± 4.1 | 158 ± 3.7 | 149 ± 5.1 | 138 ± 3.4 | 135 ± 2.5 | improved | Degree of antihypertension ([2]; dosage 0.5 mg/kg): 35.8 ± 9.65 mmHg; change in systolic pressure (in words) ([3]; over 4 weeks of administration, p<0.01): decreased to normal blood pressure levels; TC ([4]; dosage 0.5 mg/kg): 8.27 ± 2.96 mmol/L; TG ([4]; dosage 0.5 mg/kg): 2.43 ± 1.21 mmol/L |
| CC(C)c1c(C(=O)Nc2ccccc2)c(-c2ccccc2)c(-c2ccc(F)cc2)n1CC[C@@H](O)C[C@@H](O)CC(=O)[O-].CC(C)c1c(C(=O)Nc2ccccc2)c(-c2ccccc2)c(-c2ccc(F)cc2)n1CC[C@@H](O)C[C@@H](O)CC(=O)[O-].[Ca+2] [Group C, atorvastatin calcium] | 8.75 ± 2.65 | 7.51 ± 1.79 | 6.67 ± 2.03 | 6.15 ± 1.47 | 5.72 ± 1.48 | significant | improved | 160 ± 5.3 | 166 ± 2.9 | 161 ± 5.1 | 159 ± 4.2 | 158 ± 3.7 | significantly decreased | Degree of antihypertension ([2]; dosage 1.0 mg/kg): 2.4 ± 1.98 mmHg; lipid-lowering effect improved ([5]; comparing with the same dose of lovastatin): 51%; lipid-lowering effect improved ([5]; comparing with the same dose of pravastatin): 46%; lipid-lowering effect improved ([5]; comparing with the same dose of simvastatin): 38%; TC ([4]; dosage 1.0 mg/kg): 5.27 ± 4.03 mmol/L; TG ([4]; dosage 1.0 mg/kg): 1.49 ± 0.74 mmol/L |
